Assay results as given in ChEMBL document CHEMBL4229524, “Design, synthesis and preclinical evaluation of 5-methyl-N4-aryl-furo[2,3-d]pyrimidines as single agents with combination chemotherapy potential” (Bioorg Med Chem Lett, 2018).

Assays:
[1] = biological target: Platelet-derived growth factor receptor beta (Homo sapiens, UniProt P09619); assay: Inhibition of PDGF-BB-induced PDGFRbeta activation in human SH-SY5Y cells pretreated for 60 mins followed by PDGF-BB addition and measured after 10 mins by ELISA; assay type: cell-based
Chain of Platelet-derived growth factor receptor beta (P09619 whole entry): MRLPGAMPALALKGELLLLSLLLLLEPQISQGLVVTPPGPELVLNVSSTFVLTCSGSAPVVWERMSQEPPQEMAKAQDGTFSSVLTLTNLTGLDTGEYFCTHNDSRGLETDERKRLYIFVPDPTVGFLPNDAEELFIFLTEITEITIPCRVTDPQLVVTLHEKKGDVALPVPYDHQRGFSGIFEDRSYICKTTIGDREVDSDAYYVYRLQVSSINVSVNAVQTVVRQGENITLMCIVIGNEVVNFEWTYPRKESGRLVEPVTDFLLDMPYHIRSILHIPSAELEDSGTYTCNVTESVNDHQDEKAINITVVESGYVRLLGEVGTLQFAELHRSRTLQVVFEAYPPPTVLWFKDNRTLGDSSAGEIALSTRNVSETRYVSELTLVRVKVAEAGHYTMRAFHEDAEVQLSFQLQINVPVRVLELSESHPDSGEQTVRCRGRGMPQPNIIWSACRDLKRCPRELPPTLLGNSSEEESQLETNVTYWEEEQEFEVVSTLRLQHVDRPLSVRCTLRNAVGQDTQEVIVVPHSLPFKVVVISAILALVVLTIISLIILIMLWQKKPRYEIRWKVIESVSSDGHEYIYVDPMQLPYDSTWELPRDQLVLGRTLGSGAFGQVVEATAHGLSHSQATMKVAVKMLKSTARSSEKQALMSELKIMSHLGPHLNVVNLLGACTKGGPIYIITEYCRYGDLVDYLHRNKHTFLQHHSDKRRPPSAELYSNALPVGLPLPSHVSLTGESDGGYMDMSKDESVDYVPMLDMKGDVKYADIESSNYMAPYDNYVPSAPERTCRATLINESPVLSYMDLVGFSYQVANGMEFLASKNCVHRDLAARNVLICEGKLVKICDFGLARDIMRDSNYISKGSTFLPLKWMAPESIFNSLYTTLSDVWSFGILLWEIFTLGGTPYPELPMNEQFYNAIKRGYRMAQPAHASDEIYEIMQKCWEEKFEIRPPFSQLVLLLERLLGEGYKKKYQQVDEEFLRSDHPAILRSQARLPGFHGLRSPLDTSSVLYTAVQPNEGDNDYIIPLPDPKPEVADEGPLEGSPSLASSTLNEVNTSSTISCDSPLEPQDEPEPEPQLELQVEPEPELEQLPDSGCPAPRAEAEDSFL

[2] = biological target: Epidermal growth factor receptor (Homo sapiens, UniProt P00533); assay type: cell-based
Chain of Epidermal growth factor receptor (P00533 whole entry): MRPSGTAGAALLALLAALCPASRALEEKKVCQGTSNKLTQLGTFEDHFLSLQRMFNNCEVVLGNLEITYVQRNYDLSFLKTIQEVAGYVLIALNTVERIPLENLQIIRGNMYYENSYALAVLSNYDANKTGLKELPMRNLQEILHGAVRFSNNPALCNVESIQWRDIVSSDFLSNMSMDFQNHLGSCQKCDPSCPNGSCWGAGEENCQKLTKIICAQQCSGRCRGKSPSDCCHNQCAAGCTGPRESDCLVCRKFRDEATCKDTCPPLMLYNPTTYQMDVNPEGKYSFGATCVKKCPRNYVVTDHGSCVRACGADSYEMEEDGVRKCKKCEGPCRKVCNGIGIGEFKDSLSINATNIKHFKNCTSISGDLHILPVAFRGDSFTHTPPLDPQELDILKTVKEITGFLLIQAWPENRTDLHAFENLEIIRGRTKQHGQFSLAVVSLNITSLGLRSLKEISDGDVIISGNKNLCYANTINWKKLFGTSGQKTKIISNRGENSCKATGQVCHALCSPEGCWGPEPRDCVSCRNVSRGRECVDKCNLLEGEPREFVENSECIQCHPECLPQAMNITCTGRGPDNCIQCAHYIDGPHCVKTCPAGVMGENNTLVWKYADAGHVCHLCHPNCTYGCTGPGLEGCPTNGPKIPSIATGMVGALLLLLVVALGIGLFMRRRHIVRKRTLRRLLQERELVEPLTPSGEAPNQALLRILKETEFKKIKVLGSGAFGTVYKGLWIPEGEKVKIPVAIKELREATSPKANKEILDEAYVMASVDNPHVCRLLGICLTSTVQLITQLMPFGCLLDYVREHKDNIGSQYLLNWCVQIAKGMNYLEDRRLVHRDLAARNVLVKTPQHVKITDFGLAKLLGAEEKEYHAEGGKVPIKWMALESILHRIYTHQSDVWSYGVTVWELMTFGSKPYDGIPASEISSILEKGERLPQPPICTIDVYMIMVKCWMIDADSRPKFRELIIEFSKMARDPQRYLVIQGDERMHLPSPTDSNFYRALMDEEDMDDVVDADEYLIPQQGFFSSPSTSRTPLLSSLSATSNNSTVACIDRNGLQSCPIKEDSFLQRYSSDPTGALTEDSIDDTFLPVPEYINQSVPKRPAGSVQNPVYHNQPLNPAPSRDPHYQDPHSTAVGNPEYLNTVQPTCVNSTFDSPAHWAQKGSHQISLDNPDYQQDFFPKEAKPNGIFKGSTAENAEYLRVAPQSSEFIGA

[3] = biological target: Vascular endothelial growth factor receptor 2 (Homo sapiens, UniProt P35968); assay type: cell-based
Chain of Vascular endothelial growth factor receptor 2 (P35968 whole entry): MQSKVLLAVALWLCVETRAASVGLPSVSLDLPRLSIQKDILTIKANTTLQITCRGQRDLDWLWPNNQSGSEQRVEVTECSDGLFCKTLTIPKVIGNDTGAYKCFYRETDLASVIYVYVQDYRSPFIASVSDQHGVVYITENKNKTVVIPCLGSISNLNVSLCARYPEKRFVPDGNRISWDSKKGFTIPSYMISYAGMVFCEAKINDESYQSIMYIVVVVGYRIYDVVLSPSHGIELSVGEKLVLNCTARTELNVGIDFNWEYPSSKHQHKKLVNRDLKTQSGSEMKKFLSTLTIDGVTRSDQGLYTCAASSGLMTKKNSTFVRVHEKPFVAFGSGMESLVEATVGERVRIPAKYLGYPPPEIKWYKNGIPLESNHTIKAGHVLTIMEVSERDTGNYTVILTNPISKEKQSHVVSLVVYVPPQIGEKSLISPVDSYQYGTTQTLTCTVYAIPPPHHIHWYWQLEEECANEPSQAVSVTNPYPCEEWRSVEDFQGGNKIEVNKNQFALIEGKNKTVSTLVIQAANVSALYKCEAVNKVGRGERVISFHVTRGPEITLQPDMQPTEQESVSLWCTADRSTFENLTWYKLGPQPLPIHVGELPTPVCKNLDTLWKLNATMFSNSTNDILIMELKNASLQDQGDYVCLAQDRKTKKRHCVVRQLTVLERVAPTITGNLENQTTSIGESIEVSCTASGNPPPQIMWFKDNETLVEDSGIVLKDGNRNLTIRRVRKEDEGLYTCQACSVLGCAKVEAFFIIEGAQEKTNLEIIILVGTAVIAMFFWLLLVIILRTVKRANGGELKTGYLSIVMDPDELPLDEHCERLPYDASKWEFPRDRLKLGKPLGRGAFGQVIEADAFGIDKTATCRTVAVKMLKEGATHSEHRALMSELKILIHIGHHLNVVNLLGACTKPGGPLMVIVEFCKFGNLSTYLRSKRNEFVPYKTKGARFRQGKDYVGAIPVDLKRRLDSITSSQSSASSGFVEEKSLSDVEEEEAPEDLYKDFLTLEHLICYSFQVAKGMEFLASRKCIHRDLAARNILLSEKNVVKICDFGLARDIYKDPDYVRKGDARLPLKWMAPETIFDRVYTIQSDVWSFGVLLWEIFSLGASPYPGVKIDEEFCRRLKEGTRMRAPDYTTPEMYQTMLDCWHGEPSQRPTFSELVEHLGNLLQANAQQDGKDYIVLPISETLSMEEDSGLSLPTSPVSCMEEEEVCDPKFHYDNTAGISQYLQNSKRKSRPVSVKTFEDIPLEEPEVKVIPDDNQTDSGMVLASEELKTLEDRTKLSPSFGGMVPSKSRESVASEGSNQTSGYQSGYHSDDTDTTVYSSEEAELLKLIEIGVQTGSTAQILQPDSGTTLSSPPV

A-431 = assay: Cytotoxicity against human A431 cells over-expressing EGFR; assay type: functional, cell-based
Chorioallantoic membrane = assay: Antiangiogenic activity in Leghorn chicken embryo chorioallantoic membrane after 40 hrs by microscopic analysis; assay type: functional, tissue-based; conditions: Gallus gallus
A10 = assay: Induction of microtubule depolymerization in rat A10 cells after 18 hrs by indirect immunofluorescence method; assay type: functional, cell-based; conditions: A10, 18 h
[4] = Resistance index, ratio of IC50 for human SKOV3-MDR1-M6/6 cells to IC50 for human SKOV3 cells; assay type: functional
SK-OV-3 = assay: Antiproliferative activity against human SKOV3 cells after 72 hrs by sulforhodamine B assay; assay type: functional, cell-based; conditions: SK-OV-3, 72 h
HeLa = assay: Antiproliferative activity against human HeLa cells after 72 hrs by sulforhodamine B assay; assay type: functional, cell-based
[5] = Antiproliferative activity against human wild-type Hela-beta3 cells after 72 hrs by sulforhodamine B assay; assay type: functional
[6] = Resistance index, ratio of IC50 for human HeLa cells to IC50 for human wild-type Hela-beta3 cells; assay type: functional
[7] = Antiproliferative activity against human SKOV3-MDR1-M6/6 cells after 72 hrs by sulforhodamine B assay; assay type: functional; conditions: SKOV3-MDR1-M6/6, 72 h
MDA-MB-435 = assay: Antiproliferative activity against human MDA-MB-435 cells after 72 hrs by sulforhodamine B assay; assay type: functional, cell-based; conditions: MDA-MB-435, 72 h

Compound | IC50 [1] | IC50 [2] | IC50 [3] | IC50 (A-431) | IC50 (Chorioallantoic membrane) | EC50 (A10) | Ratio IC50 [4] | IC50 (SK-OV-3) | IC50 (HeLa) | IC50 [5] | Ratio IC50 [6] | IC50 [7] | IC50 (MDA-MB-435)
COc1ccc(Nc2ncnc3occ(C)c23)cc1 | 0.0573 µM | 0.283 µM | 0.0381 µM | 0.292 µM | 0.445 µM | – | – | – | – | – | – | – | –
CNc1ccc(N(C)c2ncnc3occ(C)c23)cc1 | 0.0578 µM | 0.0064 µM | 0.0127 µM | 0.0029 µM | 0.707 µM | 0.24 µM | 1.1 | 0.095 µM | 0.074 µM | 0.086 µM | 1.2 | 0.101 µM | 0.074 µM
